Data from patent publication US7691925B2, “Pressure-sensitive adhesive composition, pressure-sensitive adhesive sheets and surface protecting film” (priority 2004, dated 2010).

Conditions: 1 part ionic liquid in 9 parts toluene, 25° C., naked eyes
Description: “Toluene-soluble” in the present invention means that an ionic liquid is soluble in toluene, more specifically, refers to such nature that an ionic liquid is uniformly dissolved in toluene upon preparation of a 10 weight % solution of an ionic-liquid in toluene.
9 Parts by weight of toluene (guaranteed grade manufactured by Wako Pure Chemical Industries, Ltd.) was added to 1 part by weight of an ionic liquid, and this was mixed and stirred under a normal temperature (25° C.) for 10 minutes, and allowed to stand for 30 minutes.
Thereafter, solubility was assessed with naked eyes, and toluene-solubility was determined. In assessment criteria, the state where no separated substance is observed, and a substance is uniformly dissolved was assessed as “soluble” (existence of toluene-solubility).

SMILES	Toluene-solubility
CCCC[n+]1cccc(C)c1.O=S(=O)([N-]S(=O)(=O)C(F)(F)F)C(F)(F)F [ionic liquid (6), 1-butyl-3-methylpyridinium bis(trifluoromethanesulfon)imide, reference compound]	possession of toluene-solubility was not confirmed
CCCCC[N+](CCCCC)(CCCCC)CCCCC.O=S(=O)([O-])C(F)(F)F [ionic liquid (1), tetra-n-pentylammonium trifluoromethanesulfonate]	possession of toluene-solubility was confirmed
CCCCCC[N+](CCCCCC)(CCCCCC)CCCCCC.O=S(=O)([O-])C(F)(F)F [ionic liquid (2), tetra-n-hexylammonium trifluoromethanesulfonate]	possession of toluene-solubility was confirmed
CCCCCCC[N+](CCCCCCC)(CCCCCCC)CCCCCCC.O=S(=O)([O-])C(F)(F)F [ionic liquid (3), tetra-n-heptylammonium trifluoromethanesulfonate]	possession of toluene-solubility was confirmed
CCCCCCCC[P+](CCCCCCCC)(CCCCCCCC)CCCCCCCC.O=S(=O)([O-])C(F)(F)F [ionic liquid (4), tetra-n-octylphosphonium trifluoromethanesulfonate]	possession of toluene-solubility was confirmed
